# Results reported in US20260273074A1, “FERRITIN-TARGETING PROTACS AND METHODS OF INDUCING PYROPTOSIS” (Wisconsin Alumni Research Foundation, priority 2023, published 2026).
# Key:
# [1] = target: T1, apoferritin from equine spleen (Equus caballus, UniProt P02791); assay: Isothermal titration calorimetry (ITC) binding to ferritin
# T1 construct: the apoferritin from equine spleen (A3660, Sigma-Aldrich) that is not combined with iron was used; purchased Sigma-Aldrich A3660; host or cells: equine spleen (tissue-derived)
# T1 sequence (P02791 2-175 limits assumed): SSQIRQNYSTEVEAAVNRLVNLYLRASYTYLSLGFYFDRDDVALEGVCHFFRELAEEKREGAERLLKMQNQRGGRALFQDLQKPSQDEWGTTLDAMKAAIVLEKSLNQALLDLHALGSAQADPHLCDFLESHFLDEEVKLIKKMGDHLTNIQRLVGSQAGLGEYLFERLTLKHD
# Method: As for the ferritin proteins, the apoferritin from equine spleen (A3660, Sigma-Aldrich) that is not combined with iron was used. Before the ITC test, 1 mL of apoferritin in glycerol solution (50% glycerol and 0.075 M NaCl) was placed in a dialysis bag with a molecular weight cut-off of 3 kDa. The dialysis bags were then immersed in the prepared solution (20 mM Tris-HCl, pH 8.5, and 130 mM NaCl) and stirred at room temperature. The dialysis buffer was changed every 24 h for three times, and the last buffer was collected and 0.05% DMSO was added to serve as the ITC buffer. As for the oleic acid, 12 μM apoferritin in the ITC buffer was placed in the ITC cell, and the syringe was full of 250 μM oleic acid in the same ITC buffer. Besides the first injection with 5 μL of the oleic acid solution, 18 aliquots with 10 μL of the oleic acid solution were titrated into the apoferritin solution with a time interval of 300 s. […] Besides the first injection with 1 μL of the apoferritin solution, 25 aliquots were titrated with a time interval of 300 s. Raw data were corrected for control titrations (the solution in the syringe into the blank ITC buffer in the cell) and integrated using Origin 7.0 (MicroCal). Binding kinetics parameters, including N, Kd, ΔH, and ΔS, were calculated using a single-class binding site model.
# [2] = target: T2, ferritin and VHL (Mus musculus, UniProt P09528+P29391+P40338); assay: Co-immunoprecipitation of ferritin with anti-VHL antibody (ternary complex formation); assay type: cell-based, murine; conditions: B16F10 cells, 5 μM, 2 h
# T2 construct: endogenous in cells; host or cells: B16F10 (murine melanoma)
# Method: Co-Immunoprecipitation assay: B16F10 cells were seeded in T75 cell culture flasks (2×10^6 cells per well) and cultured for 24 h. […] After incubation for 2 h, cells were washed with cold PBS and lysed on ice with IP lysis buffer (50 mM Tris-HCl, pH 7.4; 150 mM NaCl; 2 mM EDTA; 1% NP-40) containing phenylmethylsulfonyl fluoride (PMSF, 1 mM) and the phosphatase inhibitor cocktail for 30 min. The lysates were collected and centrifuged at 10,000 g for 10 minutes at 4° C. On the one hand, 10 μL of lysate supernatants were saved as the input samples. On the other hand, 25 μL of magnetic beads was added to each supernatant in microcentrifuge tubes, and the resulting mixtures were incubated at 4° C. with gentle rotation for 30 min. Next, the sample-containing tube was placed on a magnetic rack for 1 minute, and the supernatant was transferred into a new microcentrifuge tube placed on ice, serving as the precleared samples. The total proteins in the precleared samples were quantified through the BCA assay. Each precleared lysate was added an appropriate amount of mouse monoclonal IgG1 κ anti-VHL antibody (sc-135657, Santa Cruz Biotechnology) and then incubated at 4° C. for 2 hours with gentle rotation. After that, the pre-washed magnetic bead (equal to 25 μL of magnetic beads) was added to each sample. The resulting mixtures were incubated at room temperature for 1 h with gentle rotation. […]
# [3] = tested on: B16F10 cells; assay: ROS detection with DCFH-DA; assay type: cell-based, murine; conditions: 5 μM, 8 h, compared to DeFer-2epi and VHL ligand plus OA
# Method: ROS detection: DCFH-DA was used to evaluate the generation of intracellular ROS in cancer cells. 5×10^4 B16F10 cells were seeded in confocal dishes and cultured for 24 h at 37° C. […] After incubation for 8 h, cells were stained with DCFH-DA (10 μM) for 30 min. Finally, the cells were washed with PBS and subjected to Leica SP8 Confocal WLL STED Microscope for observation.
# [4] = Solubility in the ITC buffer; assay type: physicochemical; conditions: 20 mM Tris-HCl pH 8.5, 130 mM NaCl, 0.05% DMSO
# [5] = tested on: B16F10 cells; assay: Determination of intracellular free iron content; assay type: cell-based, murine; conditions: 5 μM, 8 h
# Method: Determination of free iron content: Here, the focus was on detecting the intracellular free iron ions rather than protein-bound iron contents. The procedures for sample preparation were based on a previously reported method. B16F10 cells were seeded in T75 cell culture flasks (2×10^6 cells per well) and cultured for 24 h. […] After incubation for 8 h, cells were harvested and resuspended in 1 mL PBS. Besides, 800 μL of PBS cell suspension was subjected to centrifugation, and 780 μL of the supernatant was carefully removed. Afterward, 280 μL of ultrapure water was added to the cell precipitate. Following shaking at horizontal rotators for 12 h, the supernatant was transferred into 30 KDa ultrafiltration centrifuge tube after twice centrifugation at 2,000 g for 20 min. […] The lysates were centrifuged at 12,000 rpm for 10 min at 4° C., followed by quantification of the total proteins in the supernatant through the BCA assay.
# As for iron content determination, 200 μL of the abovementioned filtrates were collected and treated with 10 μL of hydrochloric acid solution (6 mol/L), 100 μL of acetic acid-sodium acetate buffer (pH=4.5), 10 μL of 10% aqueous hydroxylamine hydrochloride, and 100 μL of o-phenanthroline (1 mg/mL). […] The iron ion content could be calculated according to the standard curve. […]
# [6] = tested on: GSDME-N; assay: Western blot of cleaved N-terminal GSDME (GSDME-N) in B16F10 cells; assay type: cell-based, murine; conditions: 20 h
# Method: As for the determination of cleaved-GSDME and cleaved-caspase-3, B16F10 cells were seeded in 6-well culture plates (2×10^5 cells per well) and cultured for 24 h. Then the medium in the corresponding wells except the negative control was replaced with 1 mL of medium containing ferritin degraders, albumin nanoparticles, or the degrader with inhibitors at the indicated concentrations. Incubation for another 6 or 8 h was used to test the cleaved-caspase-3, while treatment for another 16 or 20 h was used to test cleaved-GSDME. The following procedures were the same as mentioned above.
# T2 sequence (P09528 2-182 limits assumed): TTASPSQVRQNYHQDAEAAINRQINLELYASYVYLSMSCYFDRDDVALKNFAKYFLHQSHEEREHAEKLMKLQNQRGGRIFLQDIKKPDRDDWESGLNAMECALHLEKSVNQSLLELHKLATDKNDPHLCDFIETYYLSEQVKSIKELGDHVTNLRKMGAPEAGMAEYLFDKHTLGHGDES
# T2 sequence (P29391 2-183 limits assumed): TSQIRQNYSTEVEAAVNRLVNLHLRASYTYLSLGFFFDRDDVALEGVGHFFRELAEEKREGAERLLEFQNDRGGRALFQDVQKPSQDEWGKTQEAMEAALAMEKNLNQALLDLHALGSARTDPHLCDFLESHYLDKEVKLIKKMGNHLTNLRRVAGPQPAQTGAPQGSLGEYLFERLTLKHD
# T2 sequence (P40338 whole entry): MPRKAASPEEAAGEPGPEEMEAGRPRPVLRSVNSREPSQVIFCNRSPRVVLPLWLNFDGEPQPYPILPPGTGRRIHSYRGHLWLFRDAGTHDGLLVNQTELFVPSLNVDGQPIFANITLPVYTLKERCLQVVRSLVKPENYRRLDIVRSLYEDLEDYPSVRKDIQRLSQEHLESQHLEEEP
# T2 sequence (P62869 whole entry partner): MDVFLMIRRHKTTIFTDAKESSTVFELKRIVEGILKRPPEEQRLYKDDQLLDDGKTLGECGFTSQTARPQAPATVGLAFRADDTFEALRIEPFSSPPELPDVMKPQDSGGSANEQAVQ
# T2 sequence (P83940 whole entry partner): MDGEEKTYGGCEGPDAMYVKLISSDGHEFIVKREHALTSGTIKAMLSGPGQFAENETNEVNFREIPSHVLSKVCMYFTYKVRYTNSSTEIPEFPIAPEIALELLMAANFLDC
smiles,measurement,setting,value
CCCCCCCCC=CCCCCCCCC(=O)NCCCC(=O)NC(C(=O)N1CC(O)CC1C(=O)NCc1ccc(-c2scnc2C)cc1)C(C)(C)C (stereo not drawn) [DeFer-2],Kd,[1],17.1 ± 1.96 µM
same,ferritin co-precipitated with VHL,[2],could induce ferritin co-precipitated with VHL
same,ROS level,[3],sharp rise in the ROS level
same,solubility in the ITC buffer,[4],relatively low solubility
same,intracellular free iron content,[5],significant elevation
same,generation of GSDME-N,[6],enhance the generation of GSDME-N
